Results reported in patent US9555061B2, “Synthesis and analysis of compounds capable of inducing differentiation of human mesenchymal stems cells into hepatocytes” (National University Corporation Torrori University, priority 2011, dated 2017).

Tests used:
[1] = system: Wnt/β-catenin signaling pathway; test: Ability of inhibiting Wnt/β-catenin pathway, luciferase assay (UE7T-13); type: cell-based, human; conditions: 8 days after the treatment; pTCF4-CMV-luciferase reporter
Description: FIG. 3 is a schematic diagram illustrating how to establish a human mesenchymal stem cell stably expressing a β-catenin/TCF4/luciferase reporter gene. FIG. 3 illustrates how to construct pTCF4-CMVpro-GL4.20 plasmid by using a luciferase expression vector. The pTCF4-CMVpro-GL4.20 plasmid contains three TCF4 sequences […] upstream of a CMV promoter to express luciferase. In addition, pCMVpro-GL4.20 plasmid was constructed as a control. The resulting plasmids were each linearized, introduced into UE7T-13 by electroporation, and selected using puromycin (0.25 μg/ml) supplemented in a medium. Puromycin-resistant cells were cloned and used for a luciferase assay.
The cell line having a vector stably expressing luciferase was seeded on a 24-well plate, and was cultured at 37° C. At the next day, the medium was changed to a medium containing IC-2, etc., and the cell line was further cultured at 37° C. After that, at days 1, 4, and 8, a luciferase assay system (Promega) was used and the luciferase activity was read with a fluorescence plate reader (ARVO) at a wavelength of 556 nm.

[2] = system: bone marrow-derived mesenchymal stem cells; test: RT-PCR of albumin in sorted bone marrow-derived mesenchymal stem cells; type: cell-based, human; conditions: 45 μM
Procedure: Cells were seeded on a 6-well plate at a cell density of 1.8×10^4 cells/cm^2. This day was designated as day 0. At day 1 corresponding to the next day, the medium was changed to a medium containing IC-2 (at a final concentration of 25, 35, or 45 μM) or 0.1% DMSO. At day 4, the medium was changed in a manner similar to that at day 1, and at day 8, the cells were reseeded and subcultured at a cell density of 1.8×10^4 cells/cm^2. After that, the medium was replaced twice during 8 days, and the cells were subcultured every 8 days. Then, the similar operation was carried out until day 24. At days 8, 16, and 24 after the initiation of the induction, TRIzol (Invitrogen) was used to extract total RNA according to the attached instruction. After the extraction, deoxyribonuclease (Nippon Gene) was added, and the mixture was incubated at 37° C. for 30 min to remove DNA. In a reverse transcription reaction, SuperScriptII Reverse Transcriptase (Invitrogen) and Oligo(dT)15 primer were added to 1 μg of RNA to convert it into cDNA. In a RT-PCR method, the cDNA was diluted by 5 times. Next, 1 μl of the cDNA was used as a template. Then, rTaq DNA polymerase (TOYOBO) was used to amplify the cDNA. MQ water was used as a negative control. cDNA from Huh-7 or UE7T-13 cells was used as a positive control.
In order to determine hepatocyte differentiation markers, levels of expression of albumin were measured. […]

[3] = system: clinical specimen-derived mesenchymal stem cells; test: Immunofluorescence staining in clinical specimen-derived mesenchymal stem cells; type: cell-based, human; conditions: day 8; PN-3-13 20 μM, IC-2 40 μM
Procedure: A cover glass that had been sterilized with 100% ethanol was placed on a 12-well plate. Cells were seeded on the cover glass at a cell density of 1.8×10^4 cells/cm^2. This day was designated as day 0. At day 1 corresponding to the next day, the medium was changed to a medium containing HC-2 (at a final concentration of 20 μM), PN-3-13 (at a final concentration of 20 μM), IC-2 (at a final concentration of 40 μM), or 0.1% DMSO. At day 4, the medium was changed in a manner similar to that at day 1. At day 8, the culture medium was removed and the cells were washed twice with PBS. Then, in order to perform immunostaining of albumin, the cells were fixed for 20 min with 4% paraformaldehyde (Nacalai Tesque) containing 8% sucrose (Wako Pure Chemical Industries, Ltd.). For immunostaining of C/EBPα or CYP1A1, the cells were fixed for 20 min with 4% paraformaldehyde. After that, the cells were permeated with 0.2% Triton X-100 (Wako Pure Chemical Industries, Ltd.) for 10 min and were then blocked in 3% BSA (Nacalai Tesque) at room temperature for 30 min without shaking.
After the primary antibody reaction, the cells were washed with 0.1% BSA/PBS. […] The cells were incubated with each antibody, and were kept in a dark condition at room temperature for 1 h to carry out a secondary antibody reaction. Their nuclei were stained with DAPI (Cell Signaling Technology Inc.). […]

[4] = system: CD90+CD271+ bone marrow-derived mesenchymal stem cells; test: Urea assay in CD90+CD271+ bone marrow-derived mesenchymal stem cells; type: cell-based, human; conditions: hexachlorophene 4 μM, PN-3-13 20 μM, IC-2 40 μM; day 8 plus 96 h ammonium chloride
Procedure: A urea assay was performed according to the following protocol. CD90^+CD271^+ bone marrow-derived mesenchymal stem cells were seeded on a 24-well plate at a cell density of 1.8×10^4 cells/cm^2. This day was designated as day 0. At day 1 corresponding to the next day, each medium was changed to a medium containing hexachlorophene (at a final concentration of 4 μM), HC-2 (at a final concentration of 20 μM), PN-3-13 (at a final concentration of 20 μM), IC-2 (at a final concentration of 40 μM), or 0.1% DMSO. At day 4, the medium was changed in a manner similar to that at day 1, and the cells were cultured until day 8. At day 8, the medium was removed, and replaced with a medium containing ammonium chloride (Nacalai Tesque) at a final concentration of 5 mM. The cells were further cultured for 96 h. At 96 h after the addition of ammonium chloride, levels of urea in the medium were determined using a QuantiChrom Urea Assay Kit (BioAssay Systems) according to the attached protocol by reading the absorbance at a wavelength of 520 nm with a microplate reader. The levels of urea were calculated based on a standard sample according to the attached calculation method. As a negative control for the urea assay, used were CD90^+CD271^+ bone marrow-derived mesenchymal stem cells that were seeded one day before the day of the immunostaining and were not subjected to the differentiation induction.

[5] = system: clinical specimen-derived mesenchymal stem cells; test: PAS staining in clinical specimen-derived mesenchymal stem cells; type: cell-based, human; conditions: day 8, PN-3-13 20 μM, IC-2 40 μM
Procedure: PAS staining was performed according to the following procedure. A cover glass that had been sterilized with 100% ethanol was placed on a 12-well plate. Cells were seeded on the cover glass at a cell density of 1.8×10^4 cells/cm^2. This day was designated as day 0. At day 1 corresponding to the next day, each medium was changed to a medium containing HC-2 (at a final concentration of 20 μM), PN-3-13 (at a final concentration of 20 μM), IC-2 (at a final concentration of 40 μM), or 0.1% DMSO. At day 4, the medium was changed in a manner similar to that at day 1, and the cells were cultured until day 8. At day 8, the cells were washed twice with PBS and were fixed with 4% paraformaldehyde for 30 min. As a negative control, α-amylase (Nacalai Tesque) at a final concentration of 10 mg/ml was added, and the cells were incubated therewith at 37° C. for 1 h to digest their glycogen. Subsequently, the cells were treated with 1% aqueous periodic acid for 5 min. Then, the cells were treated with a Schiff reagent (Nacalai Tesque) for 15 min to stain glycogen. After that, the cells were washed three times with aqueous sulfurous acid and were then washed three times with distilled water. The nuclei were stained with Mayer's Hematoxylin (MUTO PURE CHEMICALS CO., LTD.) for 1 min. […]

UE7T-13 cells = test: Proliferation potential (toxicity), MTT assay (UE7T-13)

## (6S,9aS)-6-phenyl-8-naphthalen-1-ylmethyl-4,7-dioxo-hexahydro-pyrazino[1,2-a]pyrimidine-1-carbocylic acid benzylamide [IC-2]
[1]
  concentration that significantly inhibited the Wnt/β-catenin signaling pathway: ≥ 15 µM
[2]
  albumin expression compared with 0.1% DMSO: remarkable increase
[3]
  levels of expression of albumin, C/EBPα, and CYP1A1 compared with negative control (0.1% DMSO): apparently increased
[4]
  cellular urea synthesis compared with negative control (0.1% DMSO): apparent increase
[5]
  cellular glycogen accumulation compared with negative control (0.1% DMSO): apparent increase
UE7T-13 cells; days 2, 4, 8 of treatment
  concentration with very low cell toxicity toward UE7T-13 cells: ≤ 20 µM
UE7T-13 cells; days 2, 4, and 8
  concentration at which proliferation potential did not remain: 50 µM
